Measurements: ChEMBL document CHEMBL3046659, “Synthesis and Biological Evaluation of Allosteric A1-Adenosine Receptor Modulators Structurally Related to (2-Amino-4,5,6,7-Tetrahydro-Benzo[B]Thiophen-3-YL)-(4-Chloro-Phenyl)-Methanone, a Potent Compound Useful to Reduce Neuropathic Pain” (Med Chem Res, 2005)
Active and inactive are the calls of the source. No cut-off for these calls is given here.

What was measured:
[1] = target: T1, Adenosine receptor A1 (Homo sapiens) (UniProt P30542); assay: Allosteric modulation of Homo sapiens (human) Adenosine A1 receptor expressed in CHO cells assessed as reduction of cAMP level at 0.1 uM after 6 min by radioimmunoassay; format: functional, cell-based; parameters: scale not given: the % may be the effect or the level left
T1 sequence (whole entry): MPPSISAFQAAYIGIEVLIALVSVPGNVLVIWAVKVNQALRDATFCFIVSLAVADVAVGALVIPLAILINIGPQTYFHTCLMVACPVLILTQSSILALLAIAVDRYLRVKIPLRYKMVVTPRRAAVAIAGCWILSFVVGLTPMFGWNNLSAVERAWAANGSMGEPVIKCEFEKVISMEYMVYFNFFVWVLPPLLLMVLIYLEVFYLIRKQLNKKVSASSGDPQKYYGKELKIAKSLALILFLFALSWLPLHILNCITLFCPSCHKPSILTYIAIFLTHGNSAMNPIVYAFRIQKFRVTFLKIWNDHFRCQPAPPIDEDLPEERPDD

[2] = target: T1, Adenosine receptor A1 (Homo sapiens); assay: Inverse agonist activity at Homo sapiens (human) Adenosine A1 receptor expressed in CHO cells assessed as increase in cAMP level at 0.01 uM after 6 min by radioimmunoassay; format: functional, cell-based
[3] = target: T1, Adenosine receptor A1 (Homo sapiens); assay: Allosteric modulation of Homo sapiens (human) Adenosine A1 receptor expressed in CHO cells assessed as reduction of cAMP level at 10 uM after 6 min by radioimmunoassay; format: functional, cell-based; parameters: scale not given: the % may be the effect or the level left
[4] = target: T1, Adenosine receptor A1 (Homo sapiens); assay: Allosteric modulation of Homo sapiens (human) Adenosine A1 receptor expressed in CHO cells assessed as reduction of cAMP level at 0.01 uM after 6 min by radioimmunoassay; format: functional, cell-based; parameters: scale not given: the % may be the effect or the level left
[5] = target: T1, Adenosine receptor A1 (Homo sapiens); assay: Antagonist activity at Homo sapiens (human) Adenosine A1 receptor expressed in CHO cells assessed as cAMP level at 0.01 to 10 uM after 6 min by radioimmunoassay; format: functional, cell-based
[6] = target: T1, Adenosine receptor A1 (Homo sapiens); assay: Allosteric modulation of Homo sapiens (human) Adenosine A1 receptor expressed in CHO cells assessed as reduction of cAMP level at 1 uM after 6 min by radioimmunoassay; format: functional, cell-based; parameters: scale not given: the % may be the effect or the level left
[7] = target: T1, Adenosine receptor A1 (Homo sapiens); assay: Displacement of [3H]CCPA from A1 receptor in Homo sapiens (human) brain membrane at 10 uM after 90 min
[8] = target: T2, Adenosine receptor A1 (Rattus norvegicus) (UniProt P25099); assay: Displacement of [3H]CCPA from A1 receptor in Rattus norvegicus (rat) brain membrane at 10 uM after 90 min
T2 sequence (whole entry): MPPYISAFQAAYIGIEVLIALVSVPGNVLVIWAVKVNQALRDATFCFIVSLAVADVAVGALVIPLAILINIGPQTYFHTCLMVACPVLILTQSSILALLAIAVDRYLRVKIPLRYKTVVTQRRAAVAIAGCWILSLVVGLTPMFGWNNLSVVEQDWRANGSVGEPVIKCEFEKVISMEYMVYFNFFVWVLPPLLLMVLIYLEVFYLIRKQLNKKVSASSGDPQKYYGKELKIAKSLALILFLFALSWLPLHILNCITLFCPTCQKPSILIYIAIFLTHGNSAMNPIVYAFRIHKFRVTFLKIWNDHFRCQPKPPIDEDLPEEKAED

[9] = target: T1, Adenosine receptor A1 (Homo sapiens); assay: Displacement of [3H]CCPA from Homo sapiens (human) A1 receptor expressed in CHO cells at 10 uM after 90 min; format: cell-based
[10] = target: T1, Adenosine receptor A1 (Homo sapiens); assay: Allosteric enhancer activity at Homo sapiens (human) Adenosine A1 receptor expressed in CHO cells assessed as […] in cAMP level at 10 uM after 6 min by radioimmunoassay; format: functional, cell-based
[11] = target: T1, Adenosine receptor A1 (Homo sapiens); assay: Inverse agonist activity at Homo sapiens (human) Adenosine A1 receptor expressed in CHO cells assessed as increase in cAMP level at 1 uM after 6 min by radioimmunoassay; format: functional, cell-based
[12] = target: T1, Adenosine receptor A1 (Homo sapiens); assay: Inverse agonist activity at Homo sapiens (human) Adenosine A1 receptor expressed in CHO cells assessed as increase in cAMP level at 10 uM after 6 min by radioimmunoassay; format: functional, cell-based
[13] = target: T1, Adenosine receptor A1 (Homo sapiens); assay: Inverse agonist activity at Homo sapiens (human) Adenosine A1 receptor expressed in CHO cells assessed as increase in cAMP level at 0.1 uM after 6 min by radioimmunoassay; format: functional, cell-based

Activity [1]	Activity [2]	Activity [3]	Activity [4]	Activity [5]	Activity [6]	Activity [7]	Activity [8]	Activity [9]	Bmax [9]	Activity [10]	Activity [11]	Activity [12]	Activity [13]	Structure (SMILES)
-13%	Active	-5%	4%	Active	-17%	–	–	–	–	–	–	–	–	COc1ccc(C2SCc3c(sc(N)c3C(=O)c3ccc(Cl)cc3)S2)cc1 (stereo unspecified)
-1%	Active	-7%	20%	Active	-11%	29%	33%	65%	53%	–	–	–	–	Nc1sc2c(c1C(=O)c1ccc(Cl)cc1)CCC(c1ccccc1)C2 (stereo unspecified)
-5%	–	-29%	-8%	–	-6%	–	–	–	–	Active	–	–	–	Nc1sc2ccccc2c1C(=O)c1ccc(Cl)cc1
-6%	–	16%	-11%	Active	-1%	–	–	–	–	–	–	Active	–	Nc1sc2c(c1C(=O)c1ccc(Cl)cc1)CCC(Cc1ccccc1)C2 (stereo unspecified)
11%	–	-35%	-1%	–	1%	–	–	–	–	Active	Active	–	Active	Nc1sc2c(c1C(=O)c1ccc(Cl)cc1)CCS2

Second part, the compound before the results:

Structure (SMILES)	Activity [1]	Activity [2]	Activity [3]	Activity [4]	Activity [5]	Activity [6]	Activity [7]	Activity [8]	Activity [9]	Bmax [9]	Activity [10]	Activity [11]	Activity [12]	Activity [13]
Nc1sc2c(c1C(=O)c1ccc(Cl)cc1)CCSC2	-10%	Active	-0.3%	15%	Active	16%	–	–	–	–	–	Active	–	–
CS(=O)(=O)OC1CCc2c(sc(N)c2C(=O)c2ccc(Cl)cc2)C1 (stereo unspecified)	-1%	Active	46%	11%	Active	15%	–	–	–	–	–	Active	Active	–
Nc1sc2c(c1C(=O)c1ccc(Cl)cc1)CCC1(C2)OCCO1	-14%	–	28%	-17%	Active	3%	–	–	–	–	–	Active	Active	–
Nc1sc2c(c1C(=O)c1ccc(Cl)cc1)CCCC2	-23%	–	-55%	-8%	Active	-26%	–	–	–	–	–	–	–	–
Nc1sc2c(c1C(=O)c1ccc(Cl)cc1)CCC(O)C2 (stereo unspecified)	-13%	–	52%	-3%	Active	-2%	–	–	–	–	–	–	–	–
